Drawing on paper PMC7126595 (Bioorganic & Medicinal Chemistry, 2018), this text covers EC50 for 4 compounds.

Molecules are shown by their SMILES. pEC50: −log10 of the molar value.

Common to all, as to assay type: cell-based
In test [1] the test system is varicella-zoster virus (VZV TK+). Put plainly: microbe, parasite or virus in culture. The settings on record: Human alphaherpesvirus 3, HEL, read-out: EC50 (HEL cells) VZV TK+.
For test [2], the system named is human cytomegalovirus (HCMV Davis strain). Put plainly: Antiviral activity against HCMV Davis in HEL cells. The settings on record: Human betaherpesvirus 5, HEL, read-out: EC50 (HEL cells) HCMV Davis.
The subject of another test is yellow fever virus (YFV). The test is described as follows: microbe, parasite or virus in culture. To be noted: Vero, read-out: EC50 (Vero cells) YFV.
For the next test, the system named is Sindbis Virus (SINV). Put plainly: Antiviral activity against Sindbis virus in Vero cells. The settings on record: read-out: EC50 (Vero cells) SINV, Vero cells, viral induced cytopathic effect. (Protection from cytopathic effect is a common read-out in antiviral testing.)

For orientation: pEC50 means the negative decadic logarithm of the EC50, by convention in mol/L. As to `O=c1[nH]c(=O)n([C@H]2C[C@H](O)[C@@H](CO)O2)cc1/C=C/Br` [Brivudin], the pEC50 in test [1] was 7.92.

Regarding `Nc1ccn(C[C@@H](CO)OCP(=O)(O)O)c(=O)n1` [Cidofovir], the pEC50 in test [2] was 6.12.

Regarding `C/C(=C\CP(=O)(N[C@@H](C)C(=O)OC(C)C)Oc1cccc2ccccc12)Cn1cc(C)c(=O)[nH]c1=O` (stereo partly drawn) [E-8a, (E)-N^1-(4′-O-(1-Naphthyl)-(isopropyloxy-L-alanine)-phosphinyl-2′-methyl-but-2′-enyl)thymine], the pEC50 in test [1] was 4.35.

For `COc1c(C)c2c(c(O)c1C/C=C(\C)CCC(=O)O)C(=O)OC2` [Mycophenolic acid], the pEC50 in the test on yellow fever virus (YFV) and in the test on Sindbis Virus (SINV) was 5.40 each time.
